According to US6946447B2, “MDM2-specific antisense oligonucleotides” (Hybridon, Inc., priority 1997, dated 2005):

Legend:
DNA synthesis = DNA synthesis by BrdU incorporation normalized to viable cells; assay type: cell-based; settings: cell lines that do not undergo significant apoptosis, 100 nM, 20 hr (FIG. 15)
p53 = assay: Nuclear p53 level by immunofluorescence staining with Pab1801; assay type: cell-based, human; settings: MCF-7 cells, 200 nM, 20 hr
MDM2 [1] = assay: MDM2 protein level by immunoprecipitation/Western blot in oligonucleotide-treated cells; assay type: cell-based, human; settings: JAR cells, 18 h, Lipofectin 7 μg/ml, Western blot (FIG. 2A)
MDM2 [2] = settings: JAR and SJSA cells, 100-400 nM, Lipofectin; cited from earlier work
JAR cells = assay: Induction of apoptosis / cell death in JAR cells; assay type: cell-based, human; settings: 400 nM, 30 h, Lipofectin
Experimental: JAR cells (ATCC) were grown in DMEM medium supplemented with 1% FBS according to standard cell culture techniques. Cells were then treated for 30 hours with growth medium containing 400 nM of either antisense oligonucleotide AS5 (SEQ ID NO:28) complementary to a portion of MDM2-encoding RNA or control oligonucleotide M4 (SEQ ID NO:5), and 7 μg/ml lipofectin (Gibco BRL Paisley, UK). Treated cells were then photographed using a phase contrast microscope.
JAR cells were treated for 24 hours as described in Example 6. Floating cells were harvested and chromosomal DNA was extracted according to standard techniques (Liu et al., Cell 86:147-157 (1996)). Purified DNA was then analyzed by agarose gel electrophoresis on a 2% agarose gel. Following electrophoresis the gel was stained with 0.5 μg/ml ethidium bromide.

K: control oligonucleotide complementary to an ion channel, 5′-CAGAGCCTTCATCTTCCCAG-3′; SEQ ID NO:6 (chemistry not given here)
rate of DNA synthesis (BrdU incorporation) (DNA synthesis): not observed
nuclear p53 staining (p53): did not induce p53
inhibition of MDM2 expression (MDM2 [1]): not observed

M4: mismatch control oligonucleotide of AS5 with four mismatches, 5′-GATGACTCACACCATCATGG-3′; SEQ ID NO:5 (listed as DNA, chemistry not given here) [Oligo M4]
decrease of MDM2 protein levels (MDM2 [2]): no effect
cell death / apoptosis morphology (JAR cells): significantly less apoptosis
inhibition of MDM2 expression (MDM2 [1]): not observed
